Laboratory results taken from patent publication US8338420B1, “Treatment of Parkinson's disease and enhancement of dopamine signal using PDE 10 inhibitor” (Mitsubishi Tanabe Pharma Corporation, priority 2002, dated 2012).

Experiments:
[1] = Brain uptake (integration plot method, PS) and PDE10 binding occupancy in the brain; assay type: in vivo; settings: rat, 1 mg/kg, i.v.
Source text: Different from other tissue, the brain has the blood brain barrier (BBB) to restrict and regulate the movement of molecules between the blood and the brain. BBB consists of brain capillary endothelial cells. The brain capillary endothelial cells are connected through tight junction, and nutrients and drugs in the blood are required to pass transcellularly through the brain capillary endothelial cells. As a mechanism for the drugs to pass through the BBB, there are mentioned the following five routes; 1) passive diffusion, 2) carrier-mediated transport, 3) receptor-mediated transcytosis, 4) absorptive-mediated transcytosis and 5) active efflux transport by P-glycoprotein. The rate of the compound to pass through the BBB and enter the brain (PS) via one or plurals of these mechanisms can be measured by known in vivo experimental assays such as in situ brain perfusion, integration plot method, etc., or by the known in vitro experimental assays such as primary cultured brain capillary endothelial cells, or an established immortalized brain capillary endothelial cell line, etc. […]
Further, Compound A (1 mg/kg, i.v.) was intravenously administered to rat, and according to integration plot method, a rate (PS) was measured for Compound A to enter the brain by passing through the blood brain barrier (BBB), and occupancy of PDE10 binding in the brain was analyzed.

PDE2 = molecular target: T1, PDE2 (Bos taurus, UniProt P14099); test: PDE assay, PDE2 enzyme solution from bovine adrenal gland; assay type: biochemical, Japanese Black Cattle; settings: substrate about 12 nM [3H]-cGMP and 1 μM cGMP
T1 construct: tissue Tokyo Shibaura Zoki; host or cells: bovine adrenal gland, soluble fraction, ion-exchange fractions
T1 sequence (P14099 1-921): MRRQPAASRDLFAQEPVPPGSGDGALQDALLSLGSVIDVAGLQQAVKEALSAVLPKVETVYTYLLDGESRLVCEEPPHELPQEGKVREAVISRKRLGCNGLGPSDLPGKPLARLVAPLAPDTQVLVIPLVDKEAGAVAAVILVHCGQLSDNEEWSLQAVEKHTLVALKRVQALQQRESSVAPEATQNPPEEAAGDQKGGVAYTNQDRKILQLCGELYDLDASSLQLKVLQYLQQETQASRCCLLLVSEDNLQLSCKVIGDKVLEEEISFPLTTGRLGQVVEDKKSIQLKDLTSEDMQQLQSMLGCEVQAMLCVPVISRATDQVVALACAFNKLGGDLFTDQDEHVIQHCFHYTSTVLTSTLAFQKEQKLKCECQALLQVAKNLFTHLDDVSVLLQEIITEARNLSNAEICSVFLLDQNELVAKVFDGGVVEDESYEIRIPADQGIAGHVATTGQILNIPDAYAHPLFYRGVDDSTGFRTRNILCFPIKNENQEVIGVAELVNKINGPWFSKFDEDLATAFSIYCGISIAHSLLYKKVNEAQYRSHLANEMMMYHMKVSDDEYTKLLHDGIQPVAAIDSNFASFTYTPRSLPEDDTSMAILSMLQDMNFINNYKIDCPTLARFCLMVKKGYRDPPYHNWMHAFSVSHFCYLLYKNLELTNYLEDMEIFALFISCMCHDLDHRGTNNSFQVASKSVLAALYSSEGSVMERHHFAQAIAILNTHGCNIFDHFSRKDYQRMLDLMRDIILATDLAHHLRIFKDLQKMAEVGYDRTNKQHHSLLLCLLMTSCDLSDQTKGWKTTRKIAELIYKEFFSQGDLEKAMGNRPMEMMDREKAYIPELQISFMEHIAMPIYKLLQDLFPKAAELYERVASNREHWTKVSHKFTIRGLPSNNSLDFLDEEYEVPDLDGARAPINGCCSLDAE
Protocol: One adrenal gland of Japanese Black Cattle, purchased from Tokyo Shibaura Zoki, co., Ltd. was washed with 100 ml of ice-cold saline (0.9% sodium chloride) twice. Subsequently, the tissues were cut into about 1 gram, and it was frozen by liquid nitrogen. To about 2 g of this tissue sample was added 10 ml of an ice-cold homogenization buffer II (25 mM Tris-HCl, pH 7.5, 4 mM magnesium chloride, 0.5 mM EGTA, 2 mM dithiothreitol, 4 mM benzamidine, 0.1 mM phenylmethylsulfonyl fluoride), and the homogenate that was homogenized by Polytron homogenizer for 3 minutes was centrifuged at 8000 rpm, at 4° C. for 20 minutes, and the obtained supernatant was further centrifuged by an ultracentrifuge at 50000 rpm, at 4° C. for 60 minutes. The resultant supernatant was stored at 4° C.
This supernatant was applied to chromatography under the FPLC system, in the same manner as in Example 1 (1) above. […]
Subsequently, the eluted fractions were used as an enzyme solution for PDE assay, and cGMP-hydrolyzing activity was measured. Or, cAMP-hydrolyzing activity was measured for respective fractions, in the presence or absence of unlabeled cGMP. […]

COc1ccc(-c2cc(N3CCCC3)nc(/C=C/c3nc(-n4ccnc4)c4ccccc4n3)n2)cc1OC [Compound A, 2-{(E)-2-[4-(1-imidazolyl)-quinazolin-2-yl]}ethenyl-4-(3,4-dimethoxy)phenyl-6-(pyrrolidin-1-yl)pyrimidine]
occupancy of PDE10 binding in the brain [1]: excellent PDE10 binding behaviors inside the brain | brain uptake and penetration (rate PS through the BBB) ([1]; integration plot method): good brain uptake and penetration characteristics | IC50 (PDE2): > 1000 nM
